Reference: patent publication US12077503B2, “Substituted cyclic amides and their use as herbicides” (FMC CORPORATION, priority 2015, dated 2024)
Like-named read-outs stand apart in the source and are kept apart here.

Tests used:
Type in all cases: in vivo
Kochia (Kochia scoparia) [1] = assay: Test A preemergence; conditions: Bassia scoparia, pre-emergence, 240 h; for pest or weed control at 125 g/ha: 125 g ai/ha, visual rating after approx. 10 d, 0 to 100 scale where 0 is no effect and 100 is complete control; for pest or weed control at 500 g/ha: 500 g ai/ha
Outline: (§1)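 Compounds were formulated in a non-phytotoxic solvent mixture with surfactant and applied as a preemergence directed soil spray after seeding, or sprayed postemergence over plants 2 to 10 cm tall at the one- to two-leaf stage. Evaluation after about 10 d compared treated with untreated controls, using a scale from 0 (no effect) to 100 (complete control).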

[2] = system: Galium (catchweed bedstraw, Galium aparine); assay: Test A postemergence; conditions: Galium, post-emergence, 240 h, 125 g ai/ha, postemergence; visual injury after approximately 10 d; 0 to 100 scale (0 no effect, 100 complete control); read-out: Plant response rating, Galium
Outline: as §1

Kochia (Kochia scoparia) [3] = assay: Test A postemergence; conditions: Bassia scoparia, post-emergence, 240 h, 125 g ai/ha, postemergence; visual injury after approximately 10 d; 0 to 100 scale (0 no effect, 100 complete control); read-out: Plant response rating, Kochia
Outline: as §1

[4] = system: barnyardgrass (Echinochloa crus-galli); assay: Test A postemergence; conditions: Echinochloa crus-galli, post-emergence, 240 h, 125 g ai/ha, postemergence; visual injury after approximately 10 d; 0 to 100 scale (0 no effect, 100 complete control); read-out: Plant response rating, Barnyardgrass
Outline: as §1

[5] = system: blackgrass (Alopecurus myosuroides); assay: Test A postemergence; conditions: Alopecurus myosuroides, post-emergence, 240 h, 125 g ai/ha, postemergence; visual injury after approximately 10 d; 0 to 100 scale (0 no effect, 100 complete control); read-out: Plant response rating, Blackgrass
Outline: as §1

corn (Zea mays) = assay: Test A postemergence; conditions: Zea mays, post-emergence, 240 h, 125 g ai/ha, postemergence; visual injury after approximately 10 d; 0 to 100 scale (0 no effect, 100 complete control)
Outline: as §1

[6] = system: giant foxtail (Setaria faberii); assay: Test A postemergence; conditions: Setaria faberi, post-emergence, 240 h, 125 g ai/ha, postemergence; visual injury after approximately 10 d; 0 to 100 scale (0 no effect, 100 complete control); read-out: Plant response rating, Foxtail, Giant
Outline: as §1

[7] = system: pigweed (Amaranthus retroflexus); assay: Test A postemergence; conditions: Amaranthus retroflexus, post-emergence, 240 h, 125 g ai/ha, postemergence; visual injury after approximately 10 d; 0 to 100 scale (0 no effect, 100 complete control); read-out: Plant response rating, Pigweed
Outline: as §1

[8] = system: ragweed (common ragweed, Ambrosia elatior); assay: Test A postemergence; conditions: Ambrosia artemisiifolia, post-emergence, 240 h, 125 g ai/ha, postemergence; visual injury after approximately 10 d; 0 to 100 scale (0 no effect, 100 complete control); read-out: Plant response rating, Ragweed
Outline: as §1

[9] = system: ryegrass, Italian (Italian ryegrass, Lolium multiflorum); assay: Test A postemergence; conditions: Lolium multiflorum, post-emergence, 240 h, 125 g ai/ha, postemergence; visual injury after approximately 10 d; 0 to 100 scale (0 no effect, 100 complete control); read-out: Plant response rating, Ryegrass, Italian
Outline: as §1

[10] = system: wheat (Triticum aestivum); assay: Test A postemergence; conditions: Triticum aestivum, post-emergence, 240 h, 125 g ai/ha, postemergence; visual injury after approximately 10 d; 0 to 100 scale (0 no effect, 100 complete control); read-out: Plant response rating, Wheat
Outline: as §1

[11] = system: barnyardgrass (Echinochloa crus-galli); assay: Test B flooded paddy test; conditions: Echinochloa crus-galli, Flood, 250 g ai/ha; scale of 0 to 100 where 0 is no effect and 100 is complete control; read-out: Barnyardgrass plant response rating
Outline: (§2)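 2-leaf plants; pots flooded 3 cm over soil; cpd added to paddy water; depth held; greenhouse 13–15 d; visual rating vs controls, 0 = no effect, 100 = complete control.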

[12] = system: ducksalad (Heteranthera limosa); assay: Test B flooded paddy test; conditions: Heteranthera limosa, Flood, 250 g ai/ha; scale of 0 to 100 where 0 is no effect and 100 is complete control; read-out: Ducksalad plant response rating
Outline: as §2

rice (Oryra sativa) = assay: Test B flooded paddy test; conditions: Oryza sativa, Flood, 250 g ai/ha; scale of 0 to 100 where 0 is no effect and 100 is complete control; read-out: Rice plant response rating
Outline: as §2

[13] = system: sedge, umbrella (small-flower umbrella sedge, Cyperus difformis); assay: Test B flooded paddy test; conditions: Cyperus difformis, Flood, 250 g ai/ha; scale of 0 to 100 where 0 is no effect and 100 is complete control; read-out: Sedge, Umbrella plant response rating
Outline: as §2

[14] = preemergence, read-out: Plant response rating, Kochia
[15] = preemergence, 0 to 100 scale, 0 = no effect, 100 = complete control, read-out: Plant response rating, Kochia

SMILES: O=C1NC[C@H](c2cc(F)c(F)c(F)c2)[C@H]1C(=O)Nc1ccc(F)c(F)c1F [Compound 756]
- pest or weed control at 125 g/ha (Kochia (Kochia scoparia) [1]; [14]): 70%
- pest or weed control at 500 g/ha (Kochia (Kochia scoparia) [1]; [15]): 70%
- pest or weed control at 125 g/ha [2]: 50%
- pest or weed control at 125 g/ha (Kochia (Kochia scoparia) [3]): 20%
- pest or weed control at 125 g/ha [4]: 90%
- pest or weed control at 125 g/ha [5]: 0%
- Corn plant response rating (crop injury, 0 = no effect, 100 = complete kill) at 125 g/ha (corn (Zea mays)): 50%
- pest or weed control at 125 g/ha [6]: 80%
- pest or weed control at 125 g/ha [7]: 0%
- pest or weed control at 125 g/ha [8]: 20%
- pest or weed control at 125 g/ha [9]: 40%
- plant injury at 125 g/ha [10]: 30%
- pest or weed control at 250 g/ha [11]: 50%
- pest or weed control at 250 g/ha [12]: 100%
- pest or weed control at 250 g/ha (rice (Oryra sativa)): 0%
- pest or weed control at 250 g/ha [13]: 0%

SMILES: O=C1NC[C@H](c2ccc(C(F)(F)F)cc2)[C@H]1C(=O)Nc1ccccc1C1CC1 [Compound 746]
- pest or weed control at 125 g/ha (Kochia (Kochia scoparia) [1]; [14]): 0%
- pest or weed control at 500 g/ha (Kochia (Kochia scoparia) [1]; [15]): 60%
- pest or weed control at 125 g/ha [2]: 50%
- pest or weed control at 125 g/ha (Kochia (Kochia scoparia) [3]): 0%
- pest or weed control at 125 g/ha [4]: 20%
- pest or weed control at 125 g/ha [5]: 20%
- Corn plant response rating (crop injury, 0 = no effect, 100 = complete kill) at 125 g/ha (corn (Zea mays)): 0%
- pest or weed control at 125 g/ha [6]: 50%
- pest or weed control at 125 g/ha [7]: 0%
- pest or weed control at 125 g/ha [8]: 0%
- pest or weed control at 125 g/ha [9]: 0%
- plant injury at 125 g/ha [10]: 0%
- pest or weed control at 250 g/ha [11]: 0%
- pest or weed control at 250 g/ha [12]: 95%
- pest or weed control at 250 g/ha (rice (Oryra sativa)): 0%
- pest or weed control at 250 g/ha [13]: 0%

SMILES: O=C1NC[C@H](c2cccc3c2OC(F)(F)O3)[C@H]1C(=O)Nc1ccccc1F [Compound 754]
- pest or weed control at 125 g/ha (Kochia (Kochia scoparia) [1]; [14]): 0%
- pest or weed control at 500 g/ha (Kochia (Kochia scoparia) [1]; [15]): 0%
- pest or weed control at 125 g/ha [2]: 0%
- pest or weed control at 125 g/ha (Kochia (Kochia scoparia) [3]): 0%
- pest or weed control at 125 g/ha [4]: 60%
- pest or weed control at 125 g/ha [5]: 0%
- Corn plant response rating (crop injury, 0 = no effect, 100 = complete kill) at 125 g/ha (corn (Zea mays)): 0%
- pest or weed control at 125 g/ha [6]: 60%
- pest or weed control at 125 g/ha [7]: 0%
- pest or weed control at 125 g/ha [8]: 0%
- pest or weed control at 125 g/ha [9]: 0%
- plant injury at 125 g/ha [10]: 0%
- pest or weed control at 250 g/ha [11]: 0%
- pest or weed control at 250 g/ha [12]: 40%
- pest or weed control at 250 g/ha (rice (Oryra sativa)): 0%
- pest or weed control at 250 g/ha [13]: 0%

SMILES: Cc1ccc([C@H]2CN(C)C(=O)[C@@H]2C(=O)Nc2cccc(F)c2C)cc1C [Compound 732]
- pest or weed control at 125 g/ha (Kochia (Kochia scoparia) [1]; [14]): 70%
- pest or weed control at 500 g/ha (Kochia (Kochia scoparia) [1]; [15]): 90%
- pest or weed control at 125 g/ha [2]: 30%
- pest or weed control at 125 g/ha (Kochia (Kochia scoparia) [3]): 20%
- pest or weed control at 125 g/ha [4]: 90%
- pest or weed control at 125 g/ha [5]: 50%
- Corn plant response rating (crop injury, 0 = no effect, 100 = complete kill) at 125 g/ha (corn (Zea mays)): 70%
- pest or weed control at 125 g/ha [6]: 90%
- pest or weed control at 125 g/ha [7]: 0%
- pest or weed control at 125 g/ha [8]: 0%
- pest or weed control at 125 g/ha [9]: 50%
- plant injury at 125 g/ha [10]: 80%
- pest or weed control at 250 g/ha [11]: 45%
- pest or weed control at 250 g/ha [12]: 100%
- pest or weed control at 250 g/ha (rice (Oryra sativa)): 0%
- pest or weed control at 250 g/ha [13]: 0%

SMILES: O=C1NC[C@H](c2ccc(OC(F)F)cc2)[C@H]1C(=O)Nc1ccccc1F [Compound 778]
- pest or weed control at 125 g/ha (Kochia (Kochia scoparia) [1]; [14]): 80%
- pest or weed control at 500 g/ha (Kochia (Kochia scoparia) [1]; Preemergence, visual injury vs untreated controls after approximately 10 d, read-out: Kochia plant response rating (0 to 100 scale where 0 is no effect and 100 is complete control)): 80%
- pest or weed control at 125 g/ha [2]: 60%
- pest or weed control at 125 g/ha (Kochia (Kochia scoparia) [3]): 60%
- pest or weed control at 125 g/ha [4]: 80%
- pest or weed control at 125 g/ha [5]: 10%
- Corn plant response rating (crop injury, 0 = no effect, 100 = complete kill) at 125 g/ha (corn (Zea mays)): 0%
- pest or weed control at 125 g/ha [6]: 70%
- pest or weed control at 125 g/ha [7]: 10%
- pest or weed control at 125 g/ha [8]: 0%
- pest or weed control at 125 g/ha [9]: 20%
- plant injury at 125 g/ha [10]: 0%
- pest or weed control at 250 g/ha [11]: 0%
- pest or weed control at 250 g/ha [12]: 100%
- pest or weed control at 250 g/ha (rice (Oryra sativa)): 0%
- pest or weed control at 250 g/ha [13]: 0%
